Results: ChEMBL document CHEMBL5465560, “Selectivity Literature for EUbOPEN Chemogenomic Library” (2024)

Columns and labels:
[1] = molecular target: cAMP-dependent protein kinase catalytic subunit alpha (Homo sapiens, UniProt P17612); assay: Selectivity interaction (KinomeScan (DiscoverX)) EUB0000229b PRKACA; details: at 10 µM
[2] = molecular target: T1, Serine/threonine-protein kinase ICK (Homo sapiens) (UniProt Q9UPZ9); assay: Selectivity interaction (KinomeScan (DiscoverX)) EUB0000595a ICK; details: at 10 µM
T1 sequence (whole entry): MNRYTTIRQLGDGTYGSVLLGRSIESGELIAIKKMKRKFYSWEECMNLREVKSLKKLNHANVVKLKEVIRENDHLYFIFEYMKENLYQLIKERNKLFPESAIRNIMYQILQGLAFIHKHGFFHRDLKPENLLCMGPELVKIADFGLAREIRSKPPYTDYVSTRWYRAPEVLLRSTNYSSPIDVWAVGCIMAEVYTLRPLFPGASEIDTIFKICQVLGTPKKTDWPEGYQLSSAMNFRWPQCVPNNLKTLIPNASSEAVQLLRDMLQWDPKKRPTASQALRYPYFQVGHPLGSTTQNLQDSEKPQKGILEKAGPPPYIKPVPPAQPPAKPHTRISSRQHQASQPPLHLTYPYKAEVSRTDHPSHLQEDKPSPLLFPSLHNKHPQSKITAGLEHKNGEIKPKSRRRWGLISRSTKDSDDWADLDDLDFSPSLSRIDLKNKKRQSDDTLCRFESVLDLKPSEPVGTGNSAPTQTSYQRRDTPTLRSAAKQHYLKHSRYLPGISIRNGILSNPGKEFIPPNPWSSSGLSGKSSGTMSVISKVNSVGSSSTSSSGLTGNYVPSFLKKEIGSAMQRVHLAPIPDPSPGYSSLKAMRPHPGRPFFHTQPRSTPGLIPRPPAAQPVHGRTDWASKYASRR

[3] = molecular target: T2, Phosphatidylinositol 5-phosphate 4-kinase type-2 gamma (Homo sapiens) (UniProt Q8TBX8); assay: Selectivity interaction (KinomeScan (DiscoverX)) EUB0000695a PIP4K2C; details: at 100 nM
T2 sequence (whole entry): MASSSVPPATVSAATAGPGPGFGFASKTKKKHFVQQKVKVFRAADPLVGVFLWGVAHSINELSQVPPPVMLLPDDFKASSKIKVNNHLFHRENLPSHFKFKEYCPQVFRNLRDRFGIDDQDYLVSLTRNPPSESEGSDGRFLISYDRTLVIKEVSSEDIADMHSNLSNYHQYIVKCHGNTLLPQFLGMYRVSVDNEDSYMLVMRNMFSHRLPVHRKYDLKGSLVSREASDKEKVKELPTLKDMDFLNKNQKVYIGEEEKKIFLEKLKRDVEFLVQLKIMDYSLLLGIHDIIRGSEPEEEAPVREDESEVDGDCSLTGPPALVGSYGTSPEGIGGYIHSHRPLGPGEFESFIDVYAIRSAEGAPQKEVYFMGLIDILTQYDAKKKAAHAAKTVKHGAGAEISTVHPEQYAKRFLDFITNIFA

[4] = molecular target: T3, Tyrosine-protein kinase receptor TYRO3 (Homo sapiens) (UniProt Q06418); details: at 10 µM
T3 sequence (whole entry): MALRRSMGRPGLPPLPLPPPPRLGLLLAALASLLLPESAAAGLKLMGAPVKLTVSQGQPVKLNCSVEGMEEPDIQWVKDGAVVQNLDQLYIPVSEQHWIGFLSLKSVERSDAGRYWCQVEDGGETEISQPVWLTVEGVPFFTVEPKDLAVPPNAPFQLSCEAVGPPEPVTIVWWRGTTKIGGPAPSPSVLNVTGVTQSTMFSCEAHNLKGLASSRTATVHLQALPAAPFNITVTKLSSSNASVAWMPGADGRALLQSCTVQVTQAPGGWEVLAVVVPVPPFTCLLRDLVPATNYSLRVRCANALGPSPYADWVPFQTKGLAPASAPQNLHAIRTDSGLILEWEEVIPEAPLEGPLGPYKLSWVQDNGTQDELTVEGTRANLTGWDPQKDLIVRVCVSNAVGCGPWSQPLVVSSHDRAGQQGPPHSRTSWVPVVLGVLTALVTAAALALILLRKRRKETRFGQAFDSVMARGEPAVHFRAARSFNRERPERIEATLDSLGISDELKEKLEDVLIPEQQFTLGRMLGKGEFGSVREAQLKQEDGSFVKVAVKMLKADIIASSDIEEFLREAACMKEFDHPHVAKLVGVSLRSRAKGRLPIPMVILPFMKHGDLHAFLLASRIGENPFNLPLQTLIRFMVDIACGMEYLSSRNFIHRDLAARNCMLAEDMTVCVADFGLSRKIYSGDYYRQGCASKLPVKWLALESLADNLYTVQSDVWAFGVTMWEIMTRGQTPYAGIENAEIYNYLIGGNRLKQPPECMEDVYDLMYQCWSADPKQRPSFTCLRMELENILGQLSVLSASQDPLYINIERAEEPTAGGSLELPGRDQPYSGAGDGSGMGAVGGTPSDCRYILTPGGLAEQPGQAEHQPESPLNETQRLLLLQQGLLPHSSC

[5] = molecular target: Casein kinase II subunit alpha (Homo sapiens, UniProt P68400); assay: Selectivity interaction (KinomeScan (DiscoverX)) EUB0000092b CSNK2A1; details: at 10 µM
Sequence of Casein kinase II subunit alpha (P68400 whole entry, looked up): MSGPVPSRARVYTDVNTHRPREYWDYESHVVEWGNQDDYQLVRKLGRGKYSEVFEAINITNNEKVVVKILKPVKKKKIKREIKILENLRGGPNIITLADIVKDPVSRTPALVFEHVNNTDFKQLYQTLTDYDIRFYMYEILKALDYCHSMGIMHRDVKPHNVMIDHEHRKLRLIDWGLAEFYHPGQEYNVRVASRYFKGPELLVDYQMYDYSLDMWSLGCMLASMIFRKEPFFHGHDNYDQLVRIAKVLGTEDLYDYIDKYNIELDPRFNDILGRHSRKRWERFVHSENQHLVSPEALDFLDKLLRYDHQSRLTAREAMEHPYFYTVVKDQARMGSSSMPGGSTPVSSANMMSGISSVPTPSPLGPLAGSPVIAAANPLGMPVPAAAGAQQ

**Q.** `COc1cc(N(C)c2ccnc3ccc(C(F)(F)F)cc23)cc(OC)c1OC` was tested. Which % binding [1] did it give?
**A.** 100%

**Q.** For `COCC(=O)NC/C=C/c1ccc2ncnc(Nc3ccc(Oc4ccc(C)nc4)c(C)c3)c2c1` [CP-724714], which % of control [2] is on record?
**A.** 100%

**Q.** With `Cc1cc(F)c(C(=O)Nc2cccc(-c3nncn3C(C)C)n2)cc1-n1cnc(C2CC2)c1` as the compound, how does the % of control [3] read?
**A.** 100%

**Q.** Which % of control [4] does the source give for `Cc1cc([C@@H](C)Nc2ccccc2C(=O)O)c2nc(N3CCOCC3)cc(=O)n2c1` [AZD-6482] here?
**A.** 100%

**Q.** How did the % of control [5] turn out when `CCC(=O)N1CCN(c2ccc(-n3c(=O)ccc4cnc5ccc(-c6cnc7ccccc7c6)cc5c43)cc2C(F)(F)F)CC1` was run?
**A.** 94%
